The values below come from paper PMC8717171 (Saudi Journal of Biological Sciences, 2021).

The structures appear in SMILES notation. Values after ≈ are worked out from the molar mass of the structure shown. Values joined by “and” are separate entries in the source; they are usually repeats but may differ in a detail not shown here. Identical values can stand only once. Like-named read-outs stand apart in the source and are kept apart here.

One assay deals with mice. Description: Peripheral anti-nociception, acetic acid-induced writhing. The class given is in vivo, Mus musculus. Particulars: for Number of Writhing (Mean ± SEM): counted for 15 min, n = 5. (Writhing tests count abdominal constrictions after an irritant is injected.)
In the next assay the test system is rat hind paw oedema. Description: Anti-inflammatory activity, carrageenan-induced rat hind paw oedema. The format is in vivo, Sprague Dawley rat. Particulars: test compounds 100 mg/kg; for Mean paw edema (volume in ml) ± SEM: n = 5.
The next assay deals with microbial strains. Description: Antimicrobial disc diffusion, all test strains together. The format is cell-based. (Agar diffusion results depend on both activity and mobility in agar.)
The next assay addresses T1, acetylcholinesterase (Rattus norvegicus, UniProt P37136).
T1 sequence (P37136 32-614): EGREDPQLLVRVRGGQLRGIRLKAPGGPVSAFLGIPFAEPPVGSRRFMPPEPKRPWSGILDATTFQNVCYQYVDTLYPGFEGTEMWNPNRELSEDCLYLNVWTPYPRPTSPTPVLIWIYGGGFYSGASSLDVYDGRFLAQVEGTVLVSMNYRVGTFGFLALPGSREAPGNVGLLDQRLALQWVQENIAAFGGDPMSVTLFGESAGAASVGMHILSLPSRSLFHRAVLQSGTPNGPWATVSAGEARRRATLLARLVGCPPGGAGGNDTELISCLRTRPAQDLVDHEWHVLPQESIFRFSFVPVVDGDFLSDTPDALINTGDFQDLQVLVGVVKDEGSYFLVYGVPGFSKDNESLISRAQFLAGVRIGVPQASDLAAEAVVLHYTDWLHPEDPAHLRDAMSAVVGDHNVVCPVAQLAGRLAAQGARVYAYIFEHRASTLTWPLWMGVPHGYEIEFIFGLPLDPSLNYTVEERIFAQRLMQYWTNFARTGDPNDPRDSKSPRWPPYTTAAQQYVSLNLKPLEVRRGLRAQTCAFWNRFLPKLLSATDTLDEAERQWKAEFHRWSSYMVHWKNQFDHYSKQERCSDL
Description: In-vitro anti-acetylcholinesterase activity. The format is biochemical.

In a further assay the target is butyrylcholinesterase (Rattus norvegicus, UniProt Q9JKC1). Description: In-vitro anti-butyrylcholinesterase activity. The format is biochemical.
Assay [1] in a line: Antioxidant activity, DPPH free radical scavenging. The class given is biochemical. Particulars: absorbance at 517 nm. Background: DPPH is a stable violet radical that fades when it is reduced.
Assay [2] deals with non-enzymatic lipid peroxidation in rat brain homogenate. Description: In-vitro lipid peroxidation inhibition. Particulars: Fe2+-ascorbate.
For another assay, the system named is Swiss-albino mice. Particulars: mouse, in vivo, po; for Reaction time: 25 mg/kg.
A further assay has as its system Bacillus cereus. Description: Disc diffusion. The format is cell-based. Particulars: standard Ciprofloxacin 5 µg/disc.
In another assay the test system is Bacillus megaterium. Description: Disc diffusion. The class given is cell-based. Particulars: standard Ciprofloxacin 5 µg/disc.
For a further assay, the system named is Bacillus subtilis. Description: Disc diffusion. Particulars: standard Ciprofloxacin 5 µg/disc. The format is cell-based.
Another assay relates to Sarcina lutea. Description: Disc diffusion. The class given is cell-based. Particulars: standard Ciprofloxacin 5 µg/disc.
The test system of a further assay is Staphylococcus aureus. Description: Disc diffusion. The format is cell-based. Particulars: standard Ciprofloxacin 5 µg/disc.
A further assay deals with Escherichia coli. Description: Disc diffusion. The class given is cell-based. Particulars: standard Ciprofloxacin 5 µg/disc.
A further assay relates to Pseudomonas aeruginosa. Description: Disc diffusion. Particulars: standard Ciprofloxacin 5 µg/disc. The class given is cell-based.
The subject of the next assay is Salmonella paratyphi. Description: Disc diffusion. Particulars: standard Ciprofloxacin 5 µg/disc. The format is cell-based.
A further assay concerns Salmonella typhi. Description: Disc diffusion. The format is cell-based. Particulars: standard Ciprofloxacin 5 µg/disc.
A further assay concerns Shigella boydii. Description: Disc diffusion. The class given is cell-based. Particulars: standard Ciprofloxacin 5 µg/disc.
The subject of a further assay is Shigella dysenteriae. Description: Disc diffusion. The class given is cell-based. Particulars: standard Ciprofloxacin 5 µg/disc.
For a further assay, the system named is Vibrio mimicus. Description: Disc diffusion. The class given is cell-based. Particulars: standard Ciprofloxacin 5 µg/disc.
Another assay concerns Vibrio parahaemolyticus. Description: Disc diffusion. The class given is cell-based. Particulars: standard Ciprofloxacin 5 µg/disc.
Another assay concerns Saccharomyces cerevisiae. Description: Disc diffusion. Particulars: standard Ciprofloxacin 5 µg/disc. The class given is cell-based.
The next assay has as its system Candida albicans. Description: Disc diffusion. The format is cell-based. Particulars: standard Ciprofloxacin 5 µg/disc.
For a further assay, the system named is Aspergillus niger. Description: Disc diffusion. Particulars: standard Ciprofloxacin 5 µg/disc. The class given is cell-based.

Chain of butyrylcholinesterase (Q9JKC1 24-597): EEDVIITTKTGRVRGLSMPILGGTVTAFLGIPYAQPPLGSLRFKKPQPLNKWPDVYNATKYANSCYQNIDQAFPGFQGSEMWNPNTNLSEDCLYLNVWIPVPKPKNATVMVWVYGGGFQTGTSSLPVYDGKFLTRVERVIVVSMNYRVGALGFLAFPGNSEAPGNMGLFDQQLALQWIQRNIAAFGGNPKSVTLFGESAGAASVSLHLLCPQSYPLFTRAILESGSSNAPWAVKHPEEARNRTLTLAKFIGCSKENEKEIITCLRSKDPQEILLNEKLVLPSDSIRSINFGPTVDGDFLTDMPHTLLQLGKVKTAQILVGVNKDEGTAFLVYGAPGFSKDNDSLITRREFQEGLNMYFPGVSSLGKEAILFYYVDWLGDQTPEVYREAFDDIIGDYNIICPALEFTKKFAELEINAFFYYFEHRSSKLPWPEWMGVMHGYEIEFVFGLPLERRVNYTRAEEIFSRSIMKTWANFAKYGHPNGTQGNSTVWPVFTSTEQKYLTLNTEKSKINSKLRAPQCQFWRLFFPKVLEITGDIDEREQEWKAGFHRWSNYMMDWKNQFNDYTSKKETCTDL

In the case of `Clc1ccc(Cn2c(-c3ccc(Cl)cc3)nc3ccccc32)cc1` [Compound 3b, 1-(4-chlorobenzyl)-2-(4-chlorophenyl)-1H-benzimidazole], the “% of Inhibition of Writhing” value in the assay on mice (25 mg/kg) came out at 26.87%; in the assay on mice (50 mg/kg), 13.43%. The entries for the “Number of Writhing (Mean ± SEM)” value in the assay on mice (25 mg/kg) and in the assay on mice (50 mg/kg) were 19.6 ± 0.797 and 23.2 ± 0.464, respectively. Besides, the “% Paw edema inhibition” value with rat hind paw oedema (1st hour) is 38.98%; with rat hind paw oedema (2nd hour) it was 40.16%; in the assay with rat hind paw oedema (3rd hour), 41.98%; in the assay with rat hind paw oedema (4th hour), 44.68%. The “Mean paw edema (volume in ml) ± SEM” value in the assay on rat hind paw oedema (1st hour) stood at 0.724 ± 0.057 mL; with rat hind paw oedema (2nd hour), 0.73 ± 0.029 mL; in the assay with rat hind paw oedema (3rd hour), 0.76 ± 0.048 mL; in the assay with rat hind paw oedema (4th hour), 0.78 ± 0.056 mL. The “antimicrobial activity (in words)” value in the assay with microbial strains was “did not show any antimicrobial activity”. Moreover, the results for the IC50 against acetylcholinesterase and against butyrylcholinesterase were 187 µM and 66.3 µM, respectively.

With `Oc1ccc(Cn2c(-c3ccc(O)cc3)nc3ccccc32)cc1` [Compound 3a, 1-(4-hydroxybenzyl)-2-(4-hydroxyphenyl)-1H-benzimidazole], the “% of Inhibition of Writhing” value in the assay with mice (25 mg/kg) is 49.25%; with mice (50 mg/kg) it was 29.10%. The “Number of Writhing (Mean ± SEM)” value in the assay with mice (25 mg/kg) is reported as 13.6 ± 0.430; with mice (50 mg/kg), 19.0 ± 1.649. Moreover, the “% Paw edema inhibition” value amounted to 34.75% with rat hind paw oedema (1st hour), 36.07% in the assay on rat hind paw oedema (2nd hour), 38.93% in the assay with rat hind paw oedema (3rd hour) and 37.59% with rat hind paw oedema (4th hour). Moreover, the “Mean paw edema (volume in ml) ± SEM” value with rat hind paw oedema (1st hour) worked out at 0.768 ± 0.0575 mL; with rat hind paw oedema (2nd hour), 0.78 ± 0.023 mL; in the assay with rat hind paw oedema (3rd hour), 0.80 ± 0.043 mL; with rat hind paw oedema (4th hour) it was 0.88 ± 0.034 mL. Also, the “antimicrobial activity (in words)” value in the assay on microbial strains was “did not show any antimicrobial activity”. For the same molecule, the “IC50 (antioxidant activity, DPPH scavenging)” value in assay [1] is 16.73 µg/mL (≈ 52.9 µM). For the same molecule, the IC50 was 231 µM on acetylcholinesterase and 49.1 µM against butyrylcholinesterase. For the same molecule, in assay [2], the “IC50 (lipid peroxidation inhibition)” value amounted to 75.53 µg/mL (≈ 239 µM).

On to `Clc1ccc(-c2nc3ccccc3[nH]2)cc1` [Compound 4, 2-(4-chlorophenyl)-1H-benzimidazole], for which the Reaction time in the assay with Swiss-albino mice is 9.4 ± 0.93 and 8.8 ± 1.24 and 10.6 ± 0.68 and 12.6 ± 0.93. For the same molecule, the “% of Inhibition of Writhing” value in the assay with mice (25 mg/kg) was 2.99%; in the assay on mice (50 mg/kg), 13.81%. Also, the “peripheral analgesic activity (in words)” value in the assay with mice (25 mg/kg and 50 mg/kg) is given as “did not show any peripheral analgesic activity”. Moreover, the “Number of Writhing (Mean ± SEM)” value with mice (25 mg/kg) is 26.0 ± 1.001; in the assay with mice (50 mg/kg) it was 23.1 ± 0.843. Further, the “% Paw edema inhibition” value in the assay on rat hind paw oedema (1st hour) stood at 28.81%; in the assay with rat hind paw oedema (2nd hour), 27.87%; in the assay with rat hind paw oedema (3rd hour), 29.77%; in the assay with rat hind paw oedema (4th hour), 36.88%. Besides, the “Mean paw edema (volume in ml) ± SEM” value is 0.838 ± 0.051 mL in the assay with rat hind paw oedema (1st hour), 0.88 ± 0.027 mL in the assay with rat hind paw oedema (2nd hour), 0.92 ± 0.017 mL in the assay with rat hind paw oedema (3rd hour) and 0.89 ± 0.033 mL with rat hind paw oedema (4th hour). The “Diameter of zone of inhibition (mm)” value was determined as 7 mm in the assay with Bacillus cereus; 9 mm in the assay on Bacillus megaterium; 9 mm in the assay on Bacillus subtilis; 7 mm with Sarcina lutea; 0 mm in the assay with Staphylococcus aureus; 10 mm in the assay on Escherichia coli. For the same molecule, the “Diameter of zone of inhibition (mm)” value is 8 mm in the assay with Pseudomonas aeruginosa; 0 mm in the assay on Salmonella paratyphi; 9 mm with Salmonella typhi; 9 mm in the assay with Shigella boydii; 8 mm in the assay on Shigella dysenteriae; 0 mm in the assay with Vibrio mimicus. Besides, the “Diameter of zone of inhibition (mm)” value in the assay on Vibrio parahaemolyticus is given as 7 mm; with Saccharomyces cerevisiae, 9 mm; in the assay with Candida albicans it was 0 mm; with Aspergillus niger, 10 mm. For the same molecule, the “IC50 (antioxidant activity, DPPH scavenging)” value in assay [1] worked out at 114.18 µg/mL (≈ 499 µM). Further, in assay [2], the “IC50 (lipid peroxidation inhibition)” value stood at 98.55 µg/mL (≈ 431 µM).

As to `O=C(O)Cc1ccccc1Nc1c(Cl)cccc1Cl` [Diclofenac sodium, diclofenac sodium, reference compound], in the assay with mice (standard diclofenac sodium, dose column 0.1 ml/10 g (method: 25 mg/kg)), the “% of Inhibition of Writhing” value was found to be 91.79%. In addition, the “% Paw edema inhibition” value in the assay on rat hind paw oedema (1st hour) is on record as 23.73%; with rat hind paw oedema (2nd hour), 31.15%; with rat hind paw oedema (3rd hour) it was 38.93%; with rat hind paw oedema (4th hour), 45.39%.

Turning to `CN1CC[C@]23c4c5ccc(O)c4O[C@H]2[C@@H](O)C=C[C@H]3[C@H]1C5` [morphine, Morphine, reference compound], the “% Elongation value” with Swiss-albino mice is 48.08% and 82.5%.

Regarding `Cc1cc(C(C)(C)C)c(O)c(C(C)(C)C)c1` [BHT, tert-butyl-1-hydroxytoluene, reference compound], in assay [1], the “IC50 (antioxidant activity, DPPH scavenging)” value is 14.44 µg/mL (≈ 65.5 µM).

With `O.Oc1cc(O)c2c(c1)O[C@H](c1ccc(O)c(O)c1)[C@@H](O)C2` [Catechin, reference compound], the “IC50 (lipid peroxidation inhibition)” value in assay [2] turned out to be 59.36 µg/mL.

Take `COc1ccc(Cn2c(-c3ccc(OC)cc3)nc3ccccc32)cc1` [Compound 3c, 1-(4-methoxybenzyl)-2-(4-methoxyphenyl)-1H-benzimidazole]: the Reaction time with Swiss-albino mice was 9.8 ± 0.86 and 10.2 ± 0.86 and 10.6 ± 0.68 and 11.8 ± 0.66. For the same molecule, the “% Elongation value” with Swiss-albino mice (50 mg/kg) is 42.86% and 44.19% and 50% and 44.23%. The “% of Inhibition of Writhing” value in the assay with mice (25 mg/kg) was determined as 54.10%; in the assay with mice (50 mg/kg), 42.54%. Moreover, the figures for the “Number of Writhing (Mean ± SEM)” value in the assay with mice (25 mg/kg) and with mice (50 mg/kg) were 12.3 ± 0.831 and 15.4 ± 0.697, respectively. Further, the “% Paw edema inhibition” value in the assay on rat hind paw oedema (1st hour) was determined as 35.59%; in the assay on rat hind paw oedema (2nd hour), 35.25%; in the assay on rat hind paw oedema (3rd hour), 37.40%; in the assay on rat hind paw oedema (4th hour) it was 37.59%. Moreover, the “Mean paw edema (volume in ml) ± SEM” value turned out to be 0.758 ± 0.035 mL with rat hind paw oedema (1st hour), 0.79 ± 0.043 mL in the assay on rat hind paw oedema (2nd hour), 0.82 ± 0.022 mL in the assay on rat hind paw oedema (3rd hour) and 0.88 ± 0.046 mL with rat hind paw oedema (4th hour). Also, in the assay on microbial strains, the “antimicrobial activity (in words)” value is reported as “did not show any antimicrobial activity”. In assay [1], the “IC50 (antioxidant activity, DPPH scavenging)” value is 634.22 µg/mL (≈ 1840 µM).

By IC50 is commonly meant the concentration at which inhibition is half-maximal. A lower IC50 goes with greater potency in that assay.
